Assays:
Assay type in all cases: in vivo
[1] = system: Abutilon theophrasti (ABUTH); experiment: Greenhouse herbicidal action of glyphosate test formulations, plant growth assessed on a % scale; settings: copolymer 600 g/ha where named, 300 l/ha, after 21 days at 20° C.
Procedure: (§1) Test formulations were prepared with in each case 200 g, 300 g and 500 g of glyphosate and in each case 600 g of the copolymers I to V in 300 l of water. The data by weight refer to 100% active ingredient and 100% adjuvant. An amount of the formulation corresponding to the ratio 300 l/ha was applied in a greenhouse to the plant species Abutilon theophrasti (ABUTH), Sesbania exaltata (SEBEX), Pharbitis purpurea (PHBPU), Galium aparine (GALAP), Amaranthus retroflexus (AMARE) and Echinochloa crus-galli (ECHCG), and, after 21 days at 20° C., the plant growth was assessed according to a % scale.
(§2) 0% means no effect and 100% means complete destruction of the types of plant.

[2] = system: Amaranthus retroflexus (AMARE); experiment: as above; settings: copolymer 600 g/ha where named, 300 l/ha, after 21 days at 20° C.
Procedure: as §1, §2

Galium aparine (GALAP) = experiment: as above; settings: copolymer 600 g/ha where named, 300 l/ha, after 21 days at 20° C.
Procedure: as §1, §2

[3] = system: Sesbania exaltata (SEBEX); experiment: as above; settings: copolymer 600 g/ha where named, 300 l/ha, after 21 days at 20° C.
Procedure: as §1, §2

[4] = system: Pharbitis purpurea (PHBPU); experiment: as above; settings: copolymer 600 g/ha where named, 300 l/ha, after 21 days at 20° C.
Procedure: as §1, §2

[5] = system: Echinochloa crus-galli (ECHCG); experiment: as above; settings: copolymer 600 g/ha where named, 300 l/ha, after 21 days at 20° C.
Procedure: as §1, §2

[6] = system: SEBEX, AMARE, GALAP, ABUTH, ECHCG, PHBPU (Total); experiment: Greenhouse herbicidal action of glyphosate test formulations, total over the six plant species; settings: copolymer 600 g/ha where named
Procedure: as §1, §2

In the case of O=C(O)CNCP(=O)(O)O [Glyphosate, N-phosphonomethylglycine], the “herbicidal action ABUTH” value ([1]; glyphosate 200 g/ha) is reported as 0%, the “herbicidal action ABUTH” value ([1]; glyphosate 300 g/ha) is reported as 10% and the “herbicidal action ABUTH” value ([1]; glyphosate 500 g/ha) is reported as 15%. The “herbicidal action AMARE” value ([2]; glyphosate 200 g/ha) was 20%, the “herbicidal action AMARE” value ([2]; glyphosate 300 g/ha) was 45% and the “herbicidal action AMARE” value ([2]; glyphosate 500 g/ha) was 65%. The “herbicidal action GALAP” value (Galium aparine (GALAP); glyphosate 200 g/ha) was 5%, the “herbicidal action GALAP” value (Galium aparine (GALAP); glyphosate 300 g/ha) was 20% and the “herbicidal action GALAP” value (Galium aparine (GALAP); glyphosate 500 g/ha) was 40%. The “herbicidal action SEBEX” value ([3]; glyphosate 200 g/ha, 0% no effect, 100% complete destruction) was 10%, the “herbicidal action SEBEX” value ([3]; glyphosate 300 g/ha) was 15% and the “herbicidal action SEBEX” value ([3]; glyphosate 500 g/ha) was 30%. For the same compound, the “herbicidal action PHBPU” value ([4]; glyphosate 200 g/ha) was 10%, the “herbicidal action PHBPU” value ([4]; glyphosate 300 g/ha) was 20% and the “herbicidal action PHBPU” value ([4]; glyphosate 500 g/ha) was 40%. For the same compound, the “herbicidal action ECHCG” value ([5]; glyphosate 200 g/ha) was 15%, the “herbicidal action ECHCG” value ([5]; glyphosate 300 g/ha) was 20% and the “herbicidal action ECHCG” value ([5]; glyphosate 500 g/ha) was 40%. The “herbicidal action Total” value ([6]; glyphosate 200 g/ha) was 10%, the “herbicidal action Total” value ([6]; glyphosate 300 g/ha) was 22% and the “herbicidal action Total” value ([6]; glyphosate 500 g/ha) was 38%.

— patent US7407667B2, “Pesticidal preparations comprising copolymers” (Clariant Produkte (Deutschland) GmbH, priority 2001, dated 2008)
